Laboratory results reported in paper PMC6433685, “Histone deacetylase inhibitor LMK235 attenuates vascular constriction and aortic remodelling in hypertension” (Journal of Cellular and Molecular Medicine, 2019).

Assays:
[1] = system: A10 cells; test: MTT cell viability assay in A10 cells; assay type: cell-based, rat; settings: up to 1000 nmol/L, 24 hours
Method: A10 vascular smooth muscle cells (VSMCs) were incubated with Dulbecco's modified Eagle medium (DMEM) with 4500 mg/L glucose containing 10% foetal bovine serum (FBS). Passages were carried out every 2 or 3 days. VSMCs were maintained in DMEM in the presence of 10% FBS with low glucose (1000 mg/L). Human umbilical vein endothelial cells (HUVECs) were obtained from Gibco (Waltham, MA, USA). HUVECs were grown in an endothelial cell basal medium (EBM) with EGM‐2 bullet kit (Lonza, Walkersville, MD) and maintained at 37°C under 5% CO2. Cells were cultured for 5‐7 passages.
Cell viability was tested by the MTT [3‐(4,5‐dimethylthiazol‐2‐yl)‐2,5‐diphenyl tetrazolium bromide] assay. A10 cells were seed into 24‐well culture dishes and serum‐starved overnight. Cells were treated with LMK235 or vehicle for 24 hours at the indicated concentrations. MTT reagent was added to the medium for 2 hours and then dissolved in DMSO, and the absorbance was measured at 570 nm. For assessing cell proliferation, A10 cells were transfected with pCMV‐SPORT6‐CaMKIIα in a dose‐dependent manner. The MTT assay was performed as described above.

[2] = molecular target: T1, HDAC6 (Homo sapiens, UniProt Q9UBN7); test: HDAC6 fluorogenic enzyme assay kit (BPS Bioscience), cell-free; assay type: biochemical; settings: 0.001-10 μmol/L inhibitor
T1 construct: purchased BPS Bioscience 50076

[3] = molecular target: T2, HDAC9 (Homo sapiens, UniProt Q9UKV0); test: HDAC9 fluorogenic enzyme assay kit (BPS Bioscience), cell-free; assay type: biochemical; settings: 0.001-10 μmol/L inhibitor
T2 construct: purchased BPS Bioscience 50069
T2 sequence (Q9UKV0 whole entry): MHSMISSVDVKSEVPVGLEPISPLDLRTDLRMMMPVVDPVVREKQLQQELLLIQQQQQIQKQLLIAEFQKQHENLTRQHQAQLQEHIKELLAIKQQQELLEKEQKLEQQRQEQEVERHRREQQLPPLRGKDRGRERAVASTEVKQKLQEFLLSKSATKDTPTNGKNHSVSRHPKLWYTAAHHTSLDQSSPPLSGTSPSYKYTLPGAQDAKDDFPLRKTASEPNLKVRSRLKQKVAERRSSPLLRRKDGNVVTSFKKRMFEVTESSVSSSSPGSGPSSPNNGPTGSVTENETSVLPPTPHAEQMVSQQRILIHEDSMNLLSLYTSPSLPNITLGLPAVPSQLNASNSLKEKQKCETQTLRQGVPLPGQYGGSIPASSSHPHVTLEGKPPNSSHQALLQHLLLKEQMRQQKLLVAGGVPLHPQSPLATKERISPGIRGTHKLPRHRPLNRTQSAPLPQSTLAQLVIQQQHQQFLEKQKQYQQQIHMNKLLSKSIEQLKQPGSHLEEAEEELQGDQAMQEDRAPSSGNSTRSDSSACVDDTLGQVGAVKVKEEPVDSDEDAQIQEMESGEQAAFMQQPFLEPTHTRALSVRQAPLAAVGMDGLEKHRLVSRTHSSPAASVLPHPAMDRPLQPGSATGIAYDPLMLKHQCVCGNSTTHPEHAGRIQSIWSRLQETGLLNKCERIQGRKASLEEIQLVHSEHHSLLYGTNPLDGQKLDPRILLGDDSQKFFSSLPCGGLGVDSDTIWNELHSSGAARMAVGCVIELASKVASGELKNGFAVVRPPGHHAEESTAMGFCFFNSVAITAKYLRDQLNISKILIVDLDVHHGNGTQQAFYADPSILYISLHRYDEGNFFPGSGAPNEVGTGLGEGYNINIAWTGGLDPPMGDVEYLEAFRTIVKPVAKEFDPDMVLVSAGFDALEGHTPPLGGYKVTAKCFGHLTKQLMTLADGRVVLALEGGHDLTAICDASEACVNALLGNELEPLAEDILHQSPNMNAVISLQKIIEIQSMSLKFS

T1 sequence (Q9UBN7 whole entry): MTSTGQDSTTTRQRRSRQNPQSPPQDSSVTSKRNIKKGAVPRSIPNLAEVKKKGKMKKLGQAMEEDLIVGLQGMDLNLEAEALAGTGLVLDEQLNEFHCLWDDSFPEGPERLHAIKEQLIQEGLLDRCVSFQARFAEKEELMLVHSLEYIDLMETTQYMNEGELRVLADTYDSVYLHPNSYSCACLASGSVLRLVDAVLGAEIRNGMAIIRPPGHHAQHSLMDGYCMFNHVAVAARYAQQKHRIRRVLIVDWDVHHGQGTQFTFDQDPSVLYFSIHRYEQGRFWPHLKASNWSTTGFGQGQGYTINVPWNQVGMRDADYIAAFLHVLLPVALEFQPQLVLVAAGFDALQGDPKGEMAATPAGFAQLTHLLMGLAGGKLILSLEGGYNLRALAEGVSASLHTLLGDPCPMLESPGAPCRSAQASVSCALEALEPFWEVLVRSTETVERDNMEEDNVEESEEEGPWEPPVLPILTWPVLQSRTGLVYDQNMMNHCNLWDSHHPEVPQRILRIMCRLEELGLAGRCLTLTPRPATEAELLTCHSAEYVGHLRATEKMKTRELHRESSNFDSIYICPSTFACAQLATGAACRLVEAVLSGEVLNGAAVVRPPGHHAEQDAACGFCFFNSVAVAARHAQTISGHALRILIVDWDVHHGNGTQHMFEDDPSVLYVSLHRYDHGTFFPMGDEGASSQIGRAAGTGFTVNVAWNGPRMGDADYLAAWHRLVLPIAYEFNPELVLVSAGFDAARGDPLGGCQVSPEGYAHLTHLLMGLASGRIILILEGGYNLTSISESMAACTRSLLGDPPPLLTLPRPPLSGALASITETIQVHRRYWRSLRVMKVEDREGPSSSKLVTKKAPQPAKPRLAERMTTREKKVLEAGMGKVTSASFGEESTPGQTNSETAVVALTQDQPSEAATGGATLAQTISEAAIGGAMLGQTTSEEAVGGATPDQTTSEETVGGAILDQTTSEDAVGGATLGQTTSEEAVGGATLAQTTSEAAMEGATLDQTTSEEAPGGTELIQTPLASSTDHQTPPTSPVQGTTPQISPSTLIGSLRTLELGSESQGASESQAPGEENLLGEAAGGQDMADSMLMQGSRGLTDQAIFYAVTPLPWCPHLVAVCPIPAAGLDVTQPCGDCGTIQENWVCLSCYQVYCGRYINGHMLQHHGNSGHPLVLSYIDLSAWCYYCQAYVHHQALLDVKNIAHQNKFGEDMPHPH

`Cc1cc(C)cc(C(=O)NOCCCCCC(=O)NO)c1` [LMK235] was tested, and the “cell viability (MTT)” value [1] was “not affected”, the IC50 [2] was 50 nM and the IC50 [3] was over 20000 nM.
